pIC50: −log10 of the molar value.
Assays:
Format in all cases: ADME
CYP3A4 [1] = target: T1, CYP3A4 (Homo sapiens, UniProt P08684); test: Inhibition of CYP3A4 in human liver microsomes assessed as enzyme-mediated metabolite formation at 3 uM using testosterone as substrate incubated for 5 mins followed by NADPH addition measured after 30 mins by LC-MS/MS analysis relative to control; set-up: scale not given: the % may be the effect or the level left; settings: probe testosterone, read-out: Activity
T1 sequence (P08684 whole entry): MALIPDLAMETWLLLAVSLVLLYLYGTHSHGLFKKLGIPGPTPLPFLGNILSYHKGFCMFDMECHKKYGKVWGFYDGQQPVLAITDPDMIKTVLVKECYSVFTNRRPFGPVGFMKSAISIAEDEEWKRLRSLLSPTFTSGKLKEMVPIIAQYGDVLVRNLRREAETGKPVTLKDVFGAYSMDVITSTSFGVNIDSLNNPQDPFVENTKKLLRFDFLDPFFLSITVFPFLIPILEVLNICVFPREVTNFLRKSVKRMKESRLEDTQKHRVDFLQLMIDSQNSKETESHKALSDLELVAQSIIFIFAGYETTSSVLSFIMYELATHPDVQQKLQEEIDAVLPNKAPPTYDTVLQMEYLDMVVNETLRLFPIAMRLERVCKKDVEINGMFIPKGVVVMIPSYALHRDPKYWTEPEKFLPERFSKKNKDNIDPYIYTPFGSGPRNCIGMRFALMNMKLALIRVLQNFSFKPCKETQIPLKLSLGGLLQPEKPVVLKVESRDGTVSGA

CYP2A6 [2] = target: T2, CYP2A6 (Homo sapiens, UniProt P11509); test: Inhibition of CYP2A6 in human liver microsomes assessed as enzyme-mediated metabolite formation at 0.3 uM using coumarin as substrate incubated for 5 mins followed by NADPH addition measured after 30 mins by LC-MS/MS analysis relative to control; set-up: scale not given: the % may be the effect or the level left; settings: probe coumarin, read-out: Activity
T2 sequence (P11509 whole entry): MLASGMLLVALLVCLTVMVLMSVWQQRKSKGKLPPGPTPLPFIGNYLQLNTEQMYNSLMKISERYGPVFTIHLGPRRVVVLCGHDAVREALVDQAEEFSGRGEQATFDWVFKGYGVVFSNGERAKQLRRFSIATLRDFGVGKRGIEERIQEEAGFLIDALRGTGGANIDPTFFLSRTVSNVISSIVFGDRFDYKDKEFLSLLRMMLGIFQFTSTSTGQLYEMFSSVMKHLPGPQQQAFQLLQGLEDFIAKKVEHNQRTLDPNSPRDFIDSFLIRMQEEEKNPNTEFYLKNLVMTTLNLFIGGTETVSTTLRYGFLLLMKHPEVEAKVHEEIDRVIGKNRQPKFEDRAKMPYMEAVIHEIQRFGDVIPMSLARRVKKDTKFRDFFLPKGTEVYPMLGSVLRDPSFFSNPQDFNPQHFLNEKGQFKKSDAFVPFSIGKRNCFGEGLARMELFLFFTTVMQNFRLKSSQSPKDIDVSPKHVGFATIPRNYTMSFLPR

CYP2A6 [3] = target: T2, CYP2A6; test: Inhibition of CYP2A6 in human liver microsomes assessed as enzyme-mediated metabolite formation at 3 uM using coumarin as substrate incubated for 5 mins followed by NADPH addition measured after 30 mins by LC-MS/MS analysis relative to control; set-up: scale not given: the % may be the effect or the level left; settings: probe coumarin, read-out: Activity
Cytochrome P450 2B6 = target: T3, Cytochrome P450 2B6 (Homo sapiens, UniProt P20813); test: Inhibition of CYP2B6 in human liver microsomes using bupropion as substrate preincubated for 20 mins followed by substrate addition measured after 30 mins in presence of NADPH by LC-MS/MS analysis
T3 sequence (P20813 whole entry): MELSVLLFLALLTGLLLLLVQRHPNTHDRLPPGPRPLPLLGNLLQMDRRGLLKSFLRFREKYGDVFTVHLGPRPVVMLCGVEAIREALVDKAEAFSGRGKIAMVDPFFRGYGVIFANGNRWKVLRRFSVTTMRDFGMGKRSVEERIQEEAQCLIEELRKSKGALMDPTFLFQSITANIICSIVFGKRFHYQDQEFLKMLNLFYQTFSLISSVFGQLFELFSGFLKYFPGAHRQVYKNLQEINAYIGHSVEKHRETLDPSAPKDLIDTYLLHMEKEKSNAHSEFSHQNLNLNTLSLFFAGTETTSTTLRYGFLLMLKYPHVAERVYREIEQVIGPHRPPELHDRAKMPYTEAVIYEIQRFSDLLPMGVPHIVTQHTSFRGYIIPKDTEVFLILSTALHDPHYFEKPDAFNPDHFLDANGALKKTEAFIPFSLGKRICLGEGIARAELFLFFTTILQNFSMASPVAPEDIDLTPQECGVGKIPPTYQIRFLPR

CYP2C9 = CYP2C9 (Homo sapiens, UniProt P11712); test: Inhibition of CYP2C9 in human liver microsomes assessed as enzyme-mediated metabolite formation at 0.1 uM using diclofenac as substrate incubated for 5 mins followed by NADPH addition measured after 30 mins by LC-MS/MS analysis relative to control; set-up: scale not given: the % may be the effect or the level left; settings: probe diclofenac, read-out: Activity
Sequence of CYP2C9 (P11712 whole entry): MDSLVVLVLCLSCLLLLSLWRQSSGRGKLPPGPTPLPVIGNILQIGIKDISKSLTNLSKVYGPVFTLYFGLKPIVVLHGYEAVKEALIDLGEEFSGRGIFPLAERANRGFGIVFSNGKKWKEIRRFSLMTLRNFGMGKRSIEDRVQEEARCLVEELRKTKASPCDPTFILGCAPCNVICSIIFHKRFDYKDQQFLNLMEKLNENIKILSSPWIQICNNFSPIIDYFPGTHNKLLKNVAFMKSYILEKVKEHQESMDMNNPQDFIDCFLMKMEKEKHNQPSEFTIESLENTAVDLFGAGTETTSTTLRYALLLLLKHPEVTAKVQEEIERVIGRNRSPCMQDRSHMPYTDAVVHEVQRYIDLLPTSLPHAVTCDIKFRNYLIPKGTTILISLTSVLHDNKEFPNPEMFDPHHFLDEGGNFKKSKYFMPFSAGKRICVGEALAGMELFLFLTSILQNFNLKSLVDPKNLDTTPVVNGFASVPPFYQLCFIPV

CYP2A6 [4] = target: T2, CYP2A6; test: Inhibition of CYP2A6 in human liver microsomes assessed as enzyme-mediated metabolite formation at 0.3 uM using coumarin as substrate preincubated for 20 mins followed by substrate addition measured after 30 mins in presence of NADPH by LC-MS/MS analysis relative to control; set-up: scale not given: the % may be the effect or the level left; settings: probe coumarin, read-out: Activity
CYP3A4 [5] = target: T1, CYP3A4; test: Inhibition of CYP3A4 in human liver microsomes assessed as enzyme-mediated metabolite formation at 10 uM using testosterone as substrate incubated for 5 mins followed by NADPH addition measured after 30 mins by LC-MS/MS analysis relative to control; set-up: scale not given: the % may be the effect or the level left; settings: probe testosterone, read-out: Activity
CYP2D6 = CYP2D6 (Homo sapiens, UniProt P10635); test: Inhibition of CYP2D6 in human liver microsomes assessed as enzyme-mediated metabolite formation at 0.3 uM using dextromethorphan as substrate preincubated for 20 mins followed by substrate addition measured after 30 mins in presence of NADPH by LC-MS/MS analysis relative to control; set-up: scale not given: the % may be the effect or the level left; settings: probe dextromethorphan, read-out: Activity
Sequence of CYP2D6 (P10635 whole entry): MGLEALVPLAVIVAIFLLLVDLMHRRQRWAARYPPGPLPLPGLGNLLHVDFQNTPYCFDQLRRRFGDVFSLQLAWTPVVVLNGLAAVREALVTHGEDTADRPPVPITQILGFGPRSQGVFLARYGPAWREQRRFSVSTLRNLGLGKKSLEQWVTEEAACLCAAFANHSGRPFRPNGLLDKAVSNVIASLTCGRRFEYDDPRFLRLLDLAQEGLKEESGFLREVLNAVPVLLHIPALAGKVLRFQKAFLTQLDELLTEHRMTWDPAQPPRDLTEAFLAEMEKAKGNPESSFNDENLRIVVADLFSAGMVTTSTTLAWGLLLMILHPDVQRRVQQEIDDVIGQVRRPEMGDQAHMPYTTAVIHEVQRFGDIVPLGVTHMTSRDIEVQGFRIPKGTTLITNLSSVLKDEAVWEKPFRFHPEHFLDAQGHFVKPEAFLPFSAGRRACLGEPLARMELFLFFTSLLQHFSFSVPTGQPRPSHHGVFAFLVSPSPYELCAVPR

CYP2C8 = target: T4, CYP2C8 (Homo sapiens, UniProt P10632); test: Inhibition of CYP2C8 in human liver microsomes assessed as enzyme-mediated metabolite formation at 0.3 uM using paclitaxel as substrate incubated for 5 mins followed by NADPH addition measured after 30 mins by LC-MS/MS analysis relative to control; set-up: scale not given: the % may be the effect or the level left; settings: probe paclitaxel, read-out: Activity
T4 sequence (P10632 whole entry): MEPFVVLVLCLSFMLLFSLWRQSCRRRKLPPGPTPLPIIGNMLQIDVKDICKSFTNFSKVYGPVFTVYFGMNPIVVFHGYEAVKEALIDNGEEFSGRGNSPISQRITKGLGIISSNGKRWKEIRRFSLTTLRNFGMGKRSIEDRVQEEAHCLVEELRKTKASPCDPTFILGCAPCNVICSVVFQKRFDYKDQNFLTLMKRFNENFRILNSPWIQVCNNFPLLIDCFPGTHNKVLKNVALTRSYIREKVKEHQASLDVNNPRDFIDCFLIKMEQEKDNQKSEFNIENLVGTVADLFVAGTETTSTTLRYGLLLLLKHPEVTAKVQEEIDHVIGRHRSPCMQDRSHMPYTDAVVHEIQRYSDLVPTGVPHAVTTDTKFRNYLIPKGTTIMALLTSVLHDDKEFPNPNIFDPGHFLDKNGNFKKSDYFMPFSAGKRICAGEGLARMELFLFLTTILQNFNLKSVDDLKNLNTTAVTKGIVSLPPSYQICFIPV

CYP2B6 = target: T5, CYP2B6 (Homo sapiens, UniProt P20813); test: Inhibition of CYP2B6 in human liver microsomes assessed as enzyme-mediated metabolite formation at 10 uM using bupropion as substrate incubated for 5 mins followed by NADPH addition measured after 30 mins by LC-MS/MS analysis relative to control; set-up: scale not given: the % may be the effect or the level left; settings: probe bupropion, read-out: Activity
T5 sequence (P20813 whole entry): T3 sequence (P20813 whole entry)

CYP3A4 [6] = target: T1, CYP3A4; test: Inhibition of CYP3A4 in human liver microsomes assessed as enzyme-mediated metabolite formation at 0.1 uM using midazolam as substrate preincubated for 20 mins followed by substrate addition measured after 30 mins in presence of NADPH by LC-MS/MS analysis relative to control; set-up: scale not given: the % may be the effect or the level left; settings: probe midazolam, read-out: Activity
CYP3A4 [7] = target: T1, CYP3A4; test: Inhibition of CYP3A4 in human liver microsomes assessed as enzyme-mediated metabolite formation at 0.3 uM using midazolam as substrate preincubated for 20 mins followed by substrate addition measured after 30 mins in presence of NADPH by LC-MS/MS analysis relative to control; set-up: scale not given: the % may be the effect or the level left; settings: probe midazolam, read-out: Activity
Cytochrome P450 2C19 = Cytochrome P450 2C19 (Homo sapiens, UniProt P33261); test: Inhibition of human CYP2C19 using (S)-mephenytoin as substrate incubated for 5 mins followed by NADPH addition measured after 30 mins by LC-MS/MS analysis
Sequence of Cytochrome P450 2C19 (P33261 whole entry): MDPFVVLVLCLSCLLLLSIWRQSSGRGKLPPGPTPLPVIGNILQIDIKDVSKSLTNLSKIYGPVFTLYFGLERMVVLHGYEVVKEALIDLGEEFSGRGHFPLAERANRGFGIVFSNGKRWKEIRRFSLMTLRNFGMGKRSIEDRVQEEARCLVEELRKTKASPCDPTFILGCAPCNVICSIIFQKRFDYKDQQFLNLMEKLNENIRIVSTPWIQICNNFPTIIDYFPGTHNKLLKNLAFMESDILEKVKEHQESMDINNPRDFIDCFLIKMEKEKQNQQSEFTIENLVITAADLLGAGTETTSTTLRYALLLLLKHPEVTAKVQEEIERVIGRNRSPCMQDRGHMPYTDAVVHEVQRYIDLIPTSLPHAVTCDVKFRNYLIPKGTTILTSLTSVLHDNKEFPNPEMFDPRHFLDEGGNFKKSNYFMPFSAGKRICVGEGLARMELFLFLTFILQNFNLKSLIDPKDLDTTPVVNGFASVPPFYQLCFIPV

SMILES: CCCCCCCC(=O)CCc1ccc(O)c(OC)c1
- activity at 0.5 h, 3 µM (CYP3A4 [1]): 63.3%
- activity at 0.5 h, 0.3 µM (CYP2A6 [2]): 83.8%
- activity at 0.5 h, 3 µM (CYP2A6 [3]): 80.8%
- pIC50 (Cytochrome P450 2B6): 5.20
- activity at 0.5 h, 0.1 µM (CYP2C9): 120%
- activity at 0.5 h, 0.3 µM (CYP2A6 [4]): 103%
- activity at 0.5 h, 10 µM (CYP3A4 [5]): 58.6%
- activity at 0.5 h, 0.3 µM (CYP2D6): 87%
- activity at 0.5 h, 0.3 µM (CYP2C8): 82%
- activity at 0.5 h, 10 µM (CYP2B6): 53.9%
- activity at 0.5 h, 0.1 µM (CYP3A4 [6]): 96.3%
- activity at 0.5 h, 0.3 µM (CYP3A4 [7]): 88.9%
- pIC50 (Cytochrome P450 2C19): 5.24
- inhibition (INH) (Cytochrome P450 2C19; human, 0.5 h): Dose-dependent effect
